Data taken from US7202239B2, “Cyclohexylphenyl carboxamides tocolytic oxytocin receptor antagonists” (Wyeth, priority 2001, dated 2007).

target: human vasopressin V1a receptor subtype (Homo sapiens, UniProt P37288); test: Vasopressin binding in CHO cell membranes expressing human vasopressin V1a subtype receptors; conditions: 100 nM, [3H]Manning ligand
Text: Vasopressin Binding in Chinese Hamster Ovary Cell Membranes Expressing Human Vasopressin V1a Subtype Receptors
Chinese hamster ovary cells (CHO cells) stably transfected with the human vasopressin V1a subtype receptors were either obtained from Biosignal Inc., 1744 rue Williams, Montreal, Quebec, Canada or obtained from M. Thibonnier, Case Western Reserve University School of Medicine, Cleveland, Ohio. A. Passaging and Amplification of Cells: CHO cells transfected with the human vasopressin V1a subtype receptors obtained from M. Thibonnier (pZeoSV vector) are allowed to grow to confluency (approx. >90%) in T-150 flasks under sterile conditions, in a cell culture medium of F-12 Nutrient Mixture (HAM) with L-glutamine (Gibco Cat. # 11765-054) containing 15 mM HEPES (Gibco Cat. 15630-080), 1% antibiotic/antimycotic (add 5 mL 100×, Gibco Cat. 15240-062 per 500 mL F-12), 250 μg/mL Zeocin (add 1.25 mL of 100 mg/mL Invitrogen R-250-01 per 500 mL F-12) and 10% Fetal Bovine Serum (Qualified, heat inactivated, Gibco Cat. # 16140-063). The medium is removed by aspiration and the cells are washed with 10 mL of Hank's Balanced Salt solution (Gibco Cat. # 14175-095). The salt solution is removed by aspiration and the cells are trypsinized with 5 mL of trypsin-EDTA (0.05% trypsin, 0.53 mM EDTA-4Na, Gibco Cat. # 25300-070) for 1 min. The trypsin is removed by aspiration and the cells dislodged by tapping. Cell Culture medium (eg, 30 mL for 1:30 split) is immediately added and mixed well to inactivate trypsin. 1 mL of detached cells is added to new culture flasks containing fresh cell culture medium (eg, into 25 mL per T-150 flask), and mixed gently. The cells are incubated at 37° C. in 5% CO2. The medium is changed at 3 to 4 days interval (or as appropriate). The cells grow to confluency (approx. >75%–95%) within 7–8 days. All steps are done under sterile conditions. B. Membrane Preparation: The cells are washed twice gently with Hank's Balanced Salt solution (e.g,. use 10 mL per T-150 flask). The excess is removed and the cells are bathed for 15–30 min. in an enzyme-free Cell Dissociation Buffer (e.g. use 8 mL Hank's Based, Gibco Cat. # 13150-016 per T-150 flask) until the cells are loosened. The contents are transferred to centrifuge tubes (50 mL) kept in an ice bath. All subsequent steps are done at 4° C. The tubes are centrifuged at 300×g for 15 min (1380 rpm on SORVAL, Model RT6000D, using rotor for the 50 mL tubes). The supernatant is discarded and the cells suspended in homogeneizing buffer(10 mM Tris-HCl containing 0.25 M sucrose and 1 mM EDTA, pH 7.4) ensuring that the volume of the buffer is about ten times the volume of the cell pellet. The cells are pooled into a centrifuge tube (50 mL) and homogenized with Polytron at setting 6 for 10 sec. The homogenate is transferred into a Potter-Elvjehm homogenizer and homogenized with 3 strokes. The homogenate is centrifuged at 1500× g for 10 min at 4° C. (3100 rpm using SORVAL, model RT6000D, using the rotor for 50 mL tubes). The pellet is discarded. The supernatant is centrifuged at 100,000×g for 60 min. at 4° C. (Beckman L8-80M ultracentrifuge; spin at 37,500 rpm with rotor type 70 Ti for 50 mL tubes; 38,000 rpm with type 80Ti for 15 mL tubes; or 35,800 rpm with rotor type 45Ti). The supernantant is discarded and the pellet suspended in 3 to 4 mL of Tris buffer (50 mM TRIS-HCl, pH 7.4). The protein content is estimated by the Bradford or Lowry method. The volume of the membrane suspension is adjusted with the membrane buffer (50 mM Tris-HCl containing 0.1% BSA and 0.1 mM PMSF) to give 3.0 mg/mL (or as appropriate) of protein. The membranes are aliquoted and stored at −70° C. C. […]

Chain of human vasopressin V1a receptor subtype (P37288 whole entry): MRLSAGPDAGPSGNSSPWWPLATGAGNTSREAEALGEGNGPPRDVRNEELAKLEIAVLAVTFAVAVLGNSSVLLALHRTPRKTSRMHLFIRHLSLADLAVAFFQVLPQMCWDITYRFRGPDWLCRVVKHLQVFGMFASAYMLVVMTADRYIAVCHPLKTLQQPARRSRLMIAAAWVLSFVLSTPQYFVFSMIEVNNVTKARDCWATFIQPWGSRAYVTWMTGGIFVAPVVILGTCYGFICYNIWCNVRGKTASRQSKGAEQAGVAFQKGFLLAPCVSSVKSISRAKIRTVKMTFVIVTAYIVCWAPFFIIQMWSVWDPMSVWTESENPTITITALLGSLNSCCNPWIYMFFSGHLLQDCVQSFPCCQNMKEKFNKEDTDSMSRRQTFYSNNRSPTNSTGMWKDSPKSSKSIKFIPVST

inhibition at 0.1 µM [%]	V1a % inhibition at 100 nM [%]	Structure (SMILES)
2		COc1ccc(NC(=O)c2ccc3n2Cc2ccccc2N(C(=O)c2ccc(C4CCCCC4)cc2)C3)cc1 [Example 29, 10-(4-Cyclohexyl-benzoyl)-10,11-dihydro-5H-pyrrolo[2,1-c][1,4]benzodiazepine-3-carboxylic acid (4-methoxy-phenyl)-amide]
49		CN1CCCN(C(=O)c2ccc3n2Cc2ccccc2N(C(=O)c2ccc(C4CCCCC4)cc2)C3)CC1 [Example 30, [10-(4-Cyclohexyl-benzoyl)-10,11-dihydro-5H-pyrrolo[2,1-c][1,4]benzodiazepin-3-yl](4-methyl-[1,4]-diazepan-1-yl)-methanone]
	69	O=C(C(=O)N1CCC(N2CCCCC2)CC1)c1ccc2n1Cc1ccccc1N(C(=O)c1ccc(C3CCCCC3)cc1)C2 [Example 31, 1-[1.4′]Bipiperidinyl-1′-yl-2-[10-(4-cyclohexyl-benzoyl)-10,11-dihydro-5H-pyrrolo[2,1-c][1,4]benzodiazepin-3-yl]-ethane-1,2-dione]
	56	CN1CCN(C(=O)C(=O)c2ccc3n2Cc2ccccc2N(C(=O)c2ccc(C4CCCCC4)cc2)C3)CC1 [Example 32, 1-[10-(4-Cyclohexyl-benzoyl)-10,11-dihydro-5H-pyrrolo[2,1-c][1,4]benzodiazepin-3-yl]-2-(4-methyl-1-piperazin-1-yl)-1,2-ethane-1,2-dione]
27		CN(C)CCCNC(=O)c1ccc2n1Cc1ccccc1N(C(=O)c1ccc(C3CCCCC3)cc1)C2 [Example 33, 10-(4-Cyclohexyl-benzoyl)-N-[3-(dimethylamino)propyl]-10,11-dihydro-5H-pyrrolo[2,1-c][1,4]benzodiazepine-3-carboxamide]
3		CN(C)CCN(C)C(=O)c1ccc2n1Cc1ccccc1N(C(=O)c1ccc(C3CCCCC3)cc1)C2 [Example 34, 10-(4-Cyclohexyl-benzoyl)-N-[2-(dimethylamino)-ethyl]-N-methyl-10,11-dihydro-5H-pyrrolo[2,1-c][1,4]benzodiazepine-3-carboxamide]
12		CN(C)CCCN(C)C(=O)c1ccc2n1Cc1ccccc1N(C(=O)c1ccc(C3CCCCC3)cc1)C2 [Example 35, 10-(4-Cyclohexyl-benzoyl)-N-[3-(dimethylamino)propyl]N-methyl-10,11-dihydro-5H-pyrrolo[2,1-c][1,4]benzodiazepine-3-carboxamide]
3		O=C(NCCCn1ccnc1)c1ccc2n1Cc1ccccc1N(C(=O)c1ccc(C3CCCCC3)cc1)C2 [Example 36, 10-(4-Cyclohexyl-benzoyl)-N-[3-(1H-imidazol-1-yl)propyl]-10,11-dihydro-5H-pyrrolo[2,1-c][1,4]benzodiazepine-3-carboxamide]
23		O=C(NCCN1CCCCC1)c1ccc2n1Cc1ccccc1N(C(=O)c1ccc(C3CCCCC3)cc1)C2 [Example 37, 10-(4-Cyclohexyl-benzoyl)-N-[2-(1-piperidinyl)ethyl]-10,11-dihydro-5H-pyrrolo[2,1-c][1,4]benzodiazepine-3-carboxamide]
31		CN1CCCC1CCNC(=O)c1ccc2n1Cc1ccccc1N(C(=O)c1ccc(C3CCCCC3)cc1)C2 (stereo not shown) [Example 38, 10-(4-Cyclohexyl-benzoyl)-N-[2-(1-methyl-2-pyrrolidinyl)ethyl]-10,11-dihydro-5H-pyrrolo[2,1-c][1,4]benzodiazepine-3-carboxamide]
43		CN1CCC(N(C)C(=O)c2ccc3n2Cc2ccccc2N(C(=O)c2ccc(C4CCCCC4)cc2)C3)CC1 [Example 39, 10-(4-Cyclohexyl-benzoyl)-N-methyl-N-(1-methyl-4-piperidinyl)-10,11-dihydro-5H-pyrrolo[2,1-c][1,4]benzodiazepine-3-carboxamide]
22		CN1CCC(N(C)C(=O)c2ccc3n2Cc2ccccc2N(C(=O)c2ccc(C4CCCCC4)cc2)C3)C1 (stereo not shown) [Example 40, 10-(4-Cyclohexyl-benzoyl)-N-methyl-N-(1-methyl-3-pyrrolidinyl)-10,11-dihydro-5H-pyrrolo[2,1-c][1,4]benzodiazepine-3-carboxamide]
14		CN(C)CCN1CCN(C(=O)c2ccc3n2Cc2ccccc2N(C(=O)c2ccc(C4CCCCC4)cc2)C3)CC1 [Example 41, [10-(4-Cyclohexyl-benzoyl)-10,11-dihydro-5H-pyrrolo[2,1-c][1,4]benzodiazepin-3-yl]{4-[2-(dimethylamino)ethyl]-1-piperazinyl}methanone]
28		O=C(c1ccc2n1Cc1ccccc1N(C(=O)c1ccc(C3CCCCC3)cc1)C2)N1CCN(CCN2CCOCC2)CC1 [Example 42, [10(4-Cyclohexyl-benzoyl)-10,11-dihydro-5H-pyrrolo[2,1-c][1,4]benzodiazepin-3-yl]{4-[2-(4-morpholinyl)ethyl]-1-piperazinyl}methanone]
1		C=CCN1CCN(C(=O)c2ccc3n2Cc2ccccc2N(C(=O)c2ccc(C4CCCCC4)cc2)C3)CC1 [Example 43, (4-Allyl-1-piperazinyl)[10-(4-cyclohexyl-benzoyl)-10,11-dihydro-5H-pyrrolo[2,1-c][1,4]benzodiazepin-3-yl]methanone]
1		CC(C)N1CCN(C(=O)c2ccc3n2Cc2ccccc2N(C(=O)c2ccc(C4CCCCC4)cc2)C3)CC1 [Example 44, [10-(4-Cyclohexyl-benzoyl)-10,11-dihydro-5H-pyrrolo[2,1-c][1,4]benzodiazepin-3-yl](4-isopropyl-1-piperazinyl)methanone]
31		CN(C)CCCN1CCN(C(=O)c2ccc3n2Cc2ccccc2N(C(=O)c2ccc(C4CCCCC4)cc2)C3)CC1 [Example 45, [10-(4-Cyclohexyl-benzoyl)-10,11-dihydro-5H-pyrrolo[2,1-c][1,4]benzodiazepin-3-yl]{4-[3-(dimethylamino)propyl]-1-piperazinyl}methanone]
	21	O=C(c1ccc(C2CCCCC2)cc1)N1Cc2ccc(C(=O)N3CCC[C@H]3CN3CCCC3)n2Cc2ccccc21 [Example 46, [10-(4-Cyclohexyl-benzoyl)-10,11-dihydro-5H-pyrrolo[2,1-c][1.4]benzodiazepin-3-yl][(2S)-2-(1-pyrrolidinylmethyl)pyrrolidinyl]methanone]
	28	CN(C)[C@@H]1CCN(C(=O)c2ccc3n2Cc2ccccc2N(C(=O)c2ccc(C4CCCCC4)cc2)C3)C1 [Example 47, [10-(4-Cyclohexyl-benzoyl)-10,11-dihydro-5H-pyrrolo[2,1-C][1,4]benzodiazepin-3-yl][(3R)-3-(dimethylamino)pyrrolidinyl]methanone]
	35	O=C(c1ccc2n1Cc1ccccc1N(C(=O)c1ccc(C3CCCCC3)cc1)C2)N1CCN(CCO)CC1 [Example 48, [10-(4-Cyclohexyl-benzoyl)-10,11-dihydro-5H-pyrrolo[2,1-c][1,4]benzodiazepin-3-y][4-(2-hydroxyethyl)-1-piperazinyl]methanone]
0		O=C(NCCc1ccccn1)c1ccc2n1Cc1ccccc1N(C(=O)c1ccc(C3CCCCC3)cc1)C2 [Example 49, 10-(4-Cyclohexyl-benzoyl)-N-[2-(2-pyridinyl)ethyl]-10,11-dihydro-5H-pyrrolo[2,1-c][1,4]benzodiazepine-3-carboxamide]

same assay, conditions: [3H]Manning ligand, value in parentheses

IC50 [nM]	Structure (SMILES)
> 1000	O=C(c1ccc2n1Cc1ccccc1N(C(=O)c1ccc(C3CCCCC3)cc1)C2)N1CCN(c2ccccn2)CC1 [Example 28, [10-(4-Cyclohexyl-benzoyl)-10,11-dihydro-5H-pyrrolo[2,1-c][1,4]benzodiazepine 3-yl][4-(2-pyridinyl)-1-piperazinyl]-methanone]
